# Literature values in patent publication US12403291B2, “Submucosal bioresorbable drug eluting platform” (Intersect ENT, Inc., priority 2019, dated 2025).
# Conditions: MF per gram of tissue
structure (smiles),measurement,value
"C[C@@H]1C[C@H]2[C@@H]3CCC4=CC(=O)C=C[C@]4(C)[C@@]3(Cl)[C@@H](O)C[C@]2(C)[C@@]1(OC(=O)c1ccco1)C(=O)CCl [Mometasone furoate, mometasone furoate]",concentration level of therapeutic effectiveness,0.1 µg/g
